Calls of active or inactive are those of the source. No cut-off for these calls is given here.
Legend:
[1] = Stability in simulated intestinal fluid at 10 ug/ml measured after 2 hrs by UPLC analysis relative to control; assay type: ADME; conditions: read-out: Stability
[2] = Cytotoxicity against African green monkey Vero cells assessed as reduction in cell viability after 72 hrs by MTT assay; assay type: cell-based; conditions: chlorocebus sabaeus
[3] = Selectivity index, ratio of CC50 for African green monkey Vero cells to IC50 for antileishmanial activity against Leishmania donovani MHOM/IN/80/Dd8 amastigotes harboring luciferase reporter gene; assay type: toxicity; conditions: read-out: Ratio CC50/IC50
[4] = Cytotoxicity against African green monkey Vero cells assessed as cell viability at 50 uM by MTT assay relative to control; assay type: cell-based; conditions: chlorocebus sabaeus, read-out: Activity
Leishmania donovani [5] = test: Induction of apoptosis in Leishmania donovani promastigotes assessed as early apoptotic cells at 50 uM after 48 hrs by Annexin-V/propidium iodide staining based flow cytometric method (reference value: 5.79%); assay type: functional
[6] = Toxicity in golden hamster infected with Leishmania donovani amastigotes assessed as reduction in serum AST level at 50 mg/kg , ip and measured after 10 weeks post infection (reference value: 113 U/L); assay type: organism-based, Mesocricetus auratus; conditions: in vivo, 1680 h
Leishmania donovani [7] = test: Antileishmanial activity against Leishmania donovani MHOM/IN/80/Dd8 amastigotes harboring luciferase reporter gene infected in mouse J774 cells at 3.12 to 100 uM after 48 hrs by Steady-Glo luminescence assay relative to control; assay type: functional
Leishmania donovani [8] = test: Antileishmanial activity against promastigote stage of Leishmania donovani MHOM/IN/80/Dd8 harboring luciferase reporter gene at 100 uM after 48 hrs by Steady-Glo luminescence assay relative to control; assay type: functional; conditions: MHOM/IN/80/Dd8, 48 h
Leishmania donovani [9] = test: Induction of mitochondrial membrane depolarization in Leishmania donovani promastigotes assessed as swelling of mitochondria at 50 uM after 24 hrs by TEM analysis; assay type: functional, organism-based
Leishmania donovani [10] = test: Antileishmanial activity against Leishmania donovani promastigotes infected in BALB/c mouse assessed as inhibition in parasite burden in spleen at 50 mg/kg, ip administered for 7 days starting at 15 days post-infection and measured after 1 week post last dose Giemsa staining-based assay relative to control; assay type: functional
Leishmania donovani [11] = test: Induction of ROS generation in Leishmania donovani promastigotes at 50 uM after 3 hrs by H2DCFDA probe based flow cytometry (reference value: 1.97%); assay type: functional
Leishmania donovani [12] = test: Inhibition of […] in Leishmania donovani promastigotes mitochondria at 8.1 to 50 uM using decylubiquinol as substrate in presence of cytochrome c
Leishmania donovani [13] = test: Induction of apoptosis in Leishmania donovani promastigotes assessed as necrotic cells at 50 uM after 48 hrs by Annexin-V/propidium iodide staining based flow cytometric method (reference value: 0.06%); assay type: functional
Leishmania donovani [14] = test: Antileishmanial activity against promastigote stage of Leishmania donovani MHOM/IN/80/Dd8 harboring luciferase reporter gene at 25 uM after 48 hrs by Steady-Glo luminescence assay relative to control; assay type: functional; conditions: MHOM/IN/80/Dd8, 48 h
Leishmania donovani [15] = test: Induction of mitochondrial membrane depolarization in Leishmania donovani promastigotes assessed as distorted mitochondria at 50 uM after 24 hrs by TEM analysis; assay type: functional, organism-based
[16] = Toxicity in golden hamster infected with Leishmania donovani amastigotes assessed as effect on body weight at 12.5 to 200 mg/kg, ip administered on alternative days for 4 weeks starting at 4 weeks post-infection; assay type: organism-based, Mesocricetus auratus; conditions: in vivo, 672 h
J774 [17] = test: Immunostimulatory activity in mouse J774 cells infected with Leishmania donovani promastigotes assessed as increase in IL-2 cytokine production at 50 uM after 48 hrs by ELISA; assay type: functional, cell-based
[18] = Toxicity in golden hamster infected with Leishmania donovani amastigotes assessed as reduction in serum ALT level at 50 mg/kg , ip and measured after 10 weeks post infection (reference value: 216 U/L); assay type: organism-based, Mesocricetus auratus; conditions: in vivo, 1680 h
[19] = Stability in simulated gastric fluid at 10 ug/ml measured after 2 hrs by UPLC analysis relative to control; assay type: ADME; conditions: read-out: Stability
Leishmania donovani [20] = test: Inhibition of succinate-ubiquinone oxidoreductase in Leishmania donovani promastigotes mitochondria at 8.1 to 50 uM using succinate as substrate in presence fo DCPIP by photometry analysis
[21] = Toxicity in BALB/c mouse infected with Leishmania donovani promastigotes assessed as survival at 12.5 to 200 mg/kg, ip administered for 7 days starting at 15 days post-infection; assay type: organism-based; conditions: in vivo
J774 [22] = test: Immunostimulatory activity in mouse J774 cells infected with Leishmania donovani promastigotes assessed as increase in TNF-alpha cytokine production at 50 uM after 48 hrs by ELISA; assay type: functional, cell-based
Leishmania donovani [23] = test: Induction of membrane depolarization in Leishmania donovani promastigotes assessed as increase in fluorescence at 50 uM by DiBAC4 dye based flow cytometry analysis relative to relative to 0.1% Triton X-100; assay type: functional
[24] = Tmax in BALB/c mouse at 50 mg/kg, ip by HPLC analysis; assay type: ADME, organism-based; conditions: in vivo
Leishmania donovani [25] = test: Induction of ROS generation in Leishmania donovani promastigotes at 50 uM after 12 hrs by H2DCFDA probe based flow cytometry (reference value: 1.97%); assay type: functional
J774 [26] = test: Immunostimulatory activity in mouse J774 cells infected with Leishmania donovani promastigotes assessed as reduction in IL-10 cytokine production at 50 uM after 48 hrs by ELISA; assay type: functional, cell-based
Leishmania donovani [27] = test: Induction of mitochondrial dysfunction in Leishmania donovani promastigotes assessed as reduction in mitochondrial membrane potential at 50 uM after 24 hrs by JC-1 staining-based flow cytometric analysis (reference value: 7.73%); assay type: functional; design: scale not given: the % may be the effect or the level left
[28] = Cytotoxicity against African green monkey Vero cells assessed as cell viability at 25 uM by MTT assay relative to control; assay type: cell-based; conditions: chlorocebus sabaeus, read-out: Activity
Leishmania donovani [29] = test: Antileishmanial activity against Leishmania donovani MHOM/IN/80/Dd8 promastigotes harboring luciferase reporter gene assessed as reduction in parasite viability after 48 hrs by MTT assay; assay type: functional, organism-based; conditions: MHOM/IN/80/Dd8, 48 h
Leishmania donovani [30] = test: Induction of mitochondrial dysfunction in Leishmania donovani promastigotes assessed as reduction in mitochondrial membrane potential at 50 uM after 48 hrs by JC-1 staining-based flow cytometric analysis (reference value: 7.73%); assay type: functional; design: scale not given: the % may be the effect or the level left
[31] = Stability in mouse plasma at 10 ug/ml measured after 2 hrs by UPLC analysis relative to control; assay type: ADME, cell-free; conditions: read-out: Stability
Leishmania donovani [32] = test: Antileishmanial activity against Leishmania donovani promastigotes infected in BALB/c mouse assessed as inhibition in parasite burden in liver at 200 mg/kg, ip administered for 7 days starting at 15 days post-infection and measured after 1 week post last dose Giemsa staining-based assay relative to control; assay type: functional
Leishmania donovani [33] = test: Antileishmanial activity against Leishmania donovani promastigotes infected in BALB/c mouse assessed as inhibition in parasite burden in spleen at 100 mg/kg, ip administered for 7 days starting at 15 days post-infection and measured after 1 week post last dose Giemsa staining-based assay relative to control; assay type: functional
[34] = Cytotoxicity against African green monkey Vero cells assessed as cell viability at 100 uM by MTT assay relative to control; assay type: cell-based; conditions: chlorocebus sabaeus, read-out: Activity
[35] = Cytotoxicity against BALB/c mouse splenocytes assessed as cell viability at 200 uM after 72 hrs by MTT assay relative to control; assay type: cell-based, Splenocyte; conditions: read-out: Activity
[36] = Selectivity index, ratio of CC50 for mouse J774 cells to IC50 for antileishmanial activity against Leishmania donovani MHOM/IN/80/Dd8 amastigotes harboring luciferase reporter gene; assay type: toxicity; conditions: read-out: Ratio CC50/IC50

For `CCOC(=O)C(C(=O)c1ccc(OC)cc1)C(NC(C)=O)c1cccc2ccccc12` (stereo unspecified), the remaining at 2 h, 10 ug/ml [1] was 80.2%, the CC50 at 72 h [2] was > 350 µM and the selectivity ratio [3] was 25.7. The viability at 50 µM [4] was 98.7%, the Activity (Leishmania donovani [5]) was 17.8% and the Activity [6] was 92 IU/L. The “inhibition (INH)” value (Leishmania donovani [7]) was >92%, the inhibition at 100 µM (Leishmania donovani [8]) was 97.1% and the Activity (Leishmania donovani [9]) was “Active”. For the same molecule, the inhibition in vivo at 50 mg/kg (Leishmania donovani [10]) was 92.5%, the Activity (Leishmania donovani [11]) was 7.49% and the inhibition (Leishmania donovani [12]) was “inactive”. For the same molecule, the Activity (Leishmania donovani [13]) was 0.11%, the inhibition at 25 µM (Leishmania donovani [14]) was 85.3% and the Activity (Leishmania donovani [15]) was “Active”. The Activity [16] was “Non-Toxic”, the Activity (J774 [17]) was “inactive” and the Activity [18] was 166 IU/L. The remaining at 2 h, 10 ug/ml [19] was 81.9%, the inhibition (Leishmania donovani [20]) was “inactive” and the Activity [21] was “Non-Toxic”. For the same molecule, the Activity (J774 [22]) was “inactive”, the Activity (Leishmania donovani [23]) was “<=78.5%” and the Tmax [24] was 15 min. The Activity (Leishmania donovani [25]) was 50.35%, the Activity (J774 [26]) was “inactive” and the Activity (Leishmania donovani [27]) was 63.61%. It also gave a viability at 25 µM [28] of 99.2%, an IC50 (Leishmania donovani [29]) of 9.1 µM and an Activity (Leishmania donovani [30]) of 67.97%. The remaining at 2 h, 10 ug/ml [31] was 81%, the inhibition in vivo at 200 mg/kg (Leishmania donovani [32]) was 92.1% and the inhibition in vivo at 100 mg/kg (Leishmania donovani [33]) was 92.8%. The viability at 100 µM [34] was 95.5%, the viability at 72 h, 200 µM [35] was > 84.3% and the selectivity ratio [36] was 23.4.

Reference: ChEMBL document CHEMBL4406843, “β-Amino acid derivatives as mitochondrial complex III inhibitors of L. donovani: A promising chemotype targeting visceral leishmaniasis” (Eur J Med Chem, 2019)
